In paper PMC5853558, “De novo identification of lipid II binding lipopeptides with antibacterial activity against vancomycin-resistant bacteria” (Chemical Science, 2017):
pKd: −log10 of the molar value. Where no end group is shown, it is not given here.

Columns and labels:
[1] = tested on: C15-P (farnesyl-phosphate); assay: Antagonization assay with C15-P (negative control); assay type: cell-based; set-up: key: +: antagonization of antibiotic activity; -: no antagonization of antibiotic activity; conditions: Supplemental table S10, peptide at 4x MIC, 4 molar equivalents, M. luteus, 16 h at 30°C, growth observed visually
Description: (§1) Section 4 Biological and biochemical experiments
(§2) 4.1 Minimum inhibitory concentration assay
(§3) MIC values were determined by using the broth microdilution method. Peptides were dissolved first in DMSO and diluted with broth so that the final peptide concentration was 1024 µg/ml and the DMSO concentration was 4%. Peptide serial dilutions were made in TSB in a polypropylene 96-wells plate using 50 µl volumes. An overnight culture of the organism of interest was diluted to and OD600 of 0.01 and grown until they reach 0.5. The culture was then diluted to 1 x 10^6 CFU/ml and 50 µl of this suspension was added to each well. The highest concentrations were then 512 µg/ml peptide and 2% DMSO. The plates were incubated at the preferred growth temperature of the organism that was used and 250 rpm. […] When […]
(§4) determining the MICs of the lipidated peptides, the lipopeptides were first dissolved in DMSO and diluted with TSB so that the peptide concentration was 128 µg/ml and the DMSO concentration was 4%. After inoculation the highest peptide concentration evaluated was 64 µg/ml and the DMSO concentration was 2%. A DMSO control was tested for each strain to ensure the DMSO did not affect the growth of the particular strain. […]
(§5) 4.4 Antagonization assays
(§6) Stock solutions of each peptide antibiotic were prepared so that their final concentration in the assay would be 4x MIC. Peptides were transferred to a 96 wells plate and lipid II or C15-P (farnesyl-phosphate) was added at 4 molar equivalents in a final volume of 50 µl. Each well received 50 µl of bacterial suspension (M. luteus) at 1 x 10^6 CFU/ml and the plates were incubated for 16 h at 250 rpm and 30°C. Growth was observed visually (see supplemental table S10 for results).
Supplemental table S10. Lipid II antagonization assay results
Result with indicated antagonista
Antibiotic compound Lipid II C55-PP C15-Pb […]
a + = antagonization of antibiotic activity; - = no antagonization of antibiotic activity; b C -P was used as a negative […]
control (C15-P is a watersoluble analogue of the lipid II precursor undecaprenol phosphate).
4.6 Scanning Electron Microscopy
E. faecium E155 was inoculated at an OD600nm of 0.05 into 300 µL of cation adjusted TSB containing P8-D-(S6R, R15A)-C10 or nisin at (both a 2x MIC) along with 1% glucose and 1%
DMSO. An untreated culture was used as control. Following overnight incubation (ca. 16 hr) bacterial cells were fixed for 15 minutes with 1% (v/v) glutaraldehyde in phosphate buffered saline (PBS) at room temperature on poly-L-lysine covered glass slides (12 mm diameter). […]

[2] = tested on: E. faecium (VRE155); assay: microbe, parasite or virus in culture; assay type: cell-based, Enterococcus faecium
Method in brief: (§7)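 Exponential-phase bacteria (OD600 0.5) were diluted to 1 x 10^6 CFU/ml and added in equal volume to twofold peptide dilutions in TSB. Highest final levels were 512 µg/ml for peptides and 64 µg/ml for lipidated peptides, each with 2% DMSO. Plates shook at 250 rpm at the organism's preferred temperature.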

[3] = tested on: E. faecium (VRE2297); assay: microbe, parasite or virus in culture; assay type: cell-based, Enterococcus faecium
Method in brief: as §7

[4] = tested on: E. faecium (VRE0321); assay: microbe, parasite or virus in culture; assay type: cell-based, Enterococcus faecium
Method in brief: as §7

[5] = tested on: E. faecium (E980); assay: microbe, parasite or virus in culture; assay type: cell-based, Enterococcus faecium
Method in brief: as §7

[6] = tested on: E. faecium (VRE7391); assay: microbe, parasite or virus in culture; assay type: cell-based, Enterococcus faecium
Method in brief: as §7

[7] = read-out: Kd for undecaprenyl pyrophosphate (C55-PP); cited from earlier work
[8] = tested on: S. epidermidis (1587); assay: microbe, parasite or virus in culture; assay type: cell-based
Method in brief: as §7

[9] = tested on: S. pyogenes (5448); assay: microbe, parasite or virus in culture; assay type: cell-based
Method in brief: as §7

[10] = tested on: B. subtilis (168); assay: microbe, parasite or virus in culture; assay type: cell-based
Method in brief: as §7

[11] = tested on: M. luteus (NCTC2665); assay: microbe, parasite or virus in culture; assay type: cell-based, Micrococcus luteus
Method in brief: as §7

[12] = tested on: lipid II; assay: Lipid II antagonization assay; assay type: cell-based, M. luteus; set-up: key to Result with antagonist Lipid II: +: antagonization of antibiotic activity; -: no antagonization of antibiotic activity
Description: (§8) To assess the role of lipid II in the mode of action of the lipopeptides a lipid II antagonization assay was employed.[18],[33] This assay was performed by premixing P8-D-C10 or the optimized P8-D-(S6R, R15A)-C10 with an excess of lipid II prior to addition of a live culture of M. luteus. […] To probe the stereochemical aspects of lipid II recognition by the optimized P8-D-(S6R, R15A)-C10 lipopeptide we also prepared and tested the corresponding enantiomeric L-peptide species P8-L-(S6R, R15A)-C10. […] Given that lipid II is a chiral biomolecule we had expected the enantiomeric lipopeptides to have different activities based on the assumption that they would interact differently with lipid II. To further investigate this phenomenon we employed the same lipid II antagonization assay described above. […] To explain this observation we hypothesize that the two enantiomeric peptides interact primarily with the pyrophosphate moiety of lipid II and are therefore less influenced by the chiral elements present elsewhere in the lipid II molecule. The pyrophosphate group is known to be a binding site for many natural occurring lipid II binding peptides.[15],[16] […] To test the hypothesis that both the P8-D-(S6R, R15A)-C10 and P8-L-(S6R, R15A)-C10 lipopeptides interact with the pyrophosphate moiety we performed an additional antagonizaiton experiment using C55-PP.
as §1, §2, §3, §4, §5, §6

[13] = tested on: C55-PP; assay: Antagonization assay with C55-PP; assay type: cell-based, M. luteus; set-up: key to Result with antagonist C55-PP: +: antagonization of antibiotic activity; -: no antagonization of antibiotic activity; conditions: Supplemental table S10; peptide at 4x MIC, M. luteus, 16 h at 30°C, growth observed visually
Description: as §8, §1, §2, §3, §4, §5, §6

[14] = Supplemental table S9, vancomycin-resistant isolate, MIC values of Table 2 expressed in µM
[15] = Table 2, vancomycin-resistant isolate from hospitalized patients, broth microdilution in TSB, 16 h, highest tested 64 µg/ml
[16] = Supplemental table S9, MIC values of Table 2 expressed in µM
[17] = Table 2, broth microdilution in TSB, 16 h, read visually, highest tested 64 µg/ml

Substance: Nisin (ITSISLCTPGCKTGALMGCNMKTATCHCSIHVSK; not fully specified (some residues, bridges); also: lantibiotic nisin-A: lanthionine rings and dehydro residues not placed; UniProt P13068 24-57, looked up) [reference compound]
- Result with antagonist C15-P [1]: -
- MIC E. faecium (VRE155) ([2]; Supplemental table S6, lipidated phage display hits, n.a. = not active, highest tested conc 64 µg/ml): < 1 µg/mL
- MIC E. faecium (VRE155) [2, 14]: < 0.3 µM
- MIC E. faecium (VRE155) [2, 15]: <1 μg mL^–1
- MIC E. faecium (VRE2297) [3, 14]: 2.4 µM
- MIC E. faecium (VRE2297) [3, 15]: 8 μg mL^–1
- MIC E. faecium (VRE0321) [4, 14]: 0.3 µM
- MIC E. faecium (VRE0321) [4, 15]: 1 μg mL^–1
- MIC E. faecium (E980) [5, 16]: 9.5 µM
- MIC E. faecium (E980) [5, 17]: 32 μg mL^–1
- MIC E. faecium (VRE7391) [6, 14]: 0.6 µM
- MIC E. faecium (VRE7391) [6, 15]: 2 μg mL^–1
- pKd [7]: 6.88
- MIC S. epidermidis (1587) [8, 16]: 1.2 µM
- MIC S. epidermidis (1587) [8, 17]: 4 μg mL^–1
- MIC S. pyogenes (5448) [9, 16]: < 0.3 µM
- MIC S. pyogenes (5448) [9, 17]: <1 μg mL^–1
- MIC B. subtilis (168) [10, 16]: 1.2 µM
- MIC B. subtilis (168) [10, 17]: 4 μg mL^–1
- MIC M. luteus (NCTC2665) [11, 16]: < 0.3 µM
- MIC M. luteus (NCTC2665) ([11]; Table 2, broth microdilution in TSB, 16 h, read visually, highest tested 64 µg/ml, 2% DMSO): <1 μg mL^–1
- Result with antagonist Lipid II ([12]; Supplemental table S10, peptide at 4x MIC, antagonist at 4 molar equivalents, M. luteus 1 x 10^6 CFU/ml, 16 h at 30°C, growth observed visually): +
- Effect of pre-incubation with lipid II on antibacterial activity ([12]; premixed with an excess of lipid II before addition of a live culture of M. luteus): antagonization of antibacterial activity
- Result with antagonist C55-PP [13]: +
